Assay results: patent US20120302546A1, “NOVEL SULFAMIDES EXHIBITING NEUROPROTECTIVE ACTION AND METHODS FOR USE THEREOF” (FOX CHASE CHEMICAL DIVERSITY CENTER, INC., priority 2010, published 2012)

Assays:
Hippocampal Cultures [1] = assay: Neuroprotection from glutamate excitotoxicity, propidium iodide cell death assay; type: cell-based, rat; conditions: for EC50: Rattus norvegicus, Hippocampal Cultures, read-out: NP from Glutamate PI EC50
Experimental: Hydroxyethyl sulfamides attenuate glutamate-mediated cell death: As an example of HES compounds that prevent cell death associated with glutamate, compound II is shown to attenuate an increase in propidium iodide (PI) produced by acute treatment with glutamate in FIG. 4. For these studies, day 20 hippocampal cultures derived from E18 rats were treated for 5 min with 30 μM glutamate. Following removal of the glutamate, cultures were treated with various concentrations of compound II and the propidium iodide method for measuring cell death was conducted 24 hours after the initiation of treatment. The dotted line labeled “control” represents the mean PI value for control culture receiving no treatment. The dotted line labeled “carisbamate” represents the mean PI value for the reference compound carisbamate, a putative neuroprotective anticonvulsant. The amount of carisbamate used was 100 μM and this concentration had the maximally observed efficacy for this compound. RFU is an abbreviation for relative fluorescent units. Day 15 is the number of days that the cultures were maintained in vitro before conducting the experiment.
(§1) Cell cultures: All compounds are screened with dissociated hippocampal cultures derived from embryonic day 18 rats as the primary test system. With this preparation, primary neurons are used to test for toxicity as well as neuroprotection in a highly relevant experimental system to epilepsy. In brief, hippocampal tissue are obtained commercially through Brain Bits (Springfield, Ill.) and cultures prepared as previously described by Brewer (Brewer, G. J. Serum-free B27/neurobasal medium supports differentiated growth of neurons from the striatum, substantia nigra, septum, cerebral cortex, cerebellum and dentate gyms, J. Neurosci. Res. 1995, 42, 674-683.). The hippocampal neurons are platted at low density (10,000 cell/well) in a 96-well format and maintained in serum-free medium consisting of Neurobasal Medium supplemented with B27 and GlutaMAX (Gibco). Pre-coated poly-L-lysine coated plates are used because of the preferential adherence and survival of hippocampal neurons on this matrix support.
(§2) Carboxyfluorescein (CFDA) was used a vital stain for all cell toxicity and neuroprotection studies. With the use of the CytoFluor fluorimeter, the CFDA assay was employed to assess the viability of neurons. CFDA is a dye that becomes fluorescent upon cell entry and cleavage by cytosolic esterases (Petroski, R. E.; Geller, H. M Selective labeling of embryonic neurons cultures on astrocyte monolayers with 5(6)-carboxyfluorescein diacetate (CFDA). J. Neurosci. Methods 1994, 52, 23-32.). Neuronal specificity is obtained relative to astrocytes because the cleaved dye is extruded extracellularly by glia with time, while dye in neurons remains intracellular. […] To further assess the culture responses, a propidium iodide method was used as previously described (Sarafian, T. A.; Kouyoumjian, S.; Tashkin, D.; Roth, M. D. Synergistic cytotoxicity of 9-tetrahydrocannabianol and butylated hydroxyanisole, Tox. Letters, 2002. 133, 171-179.) to measure the number of dead cells. Propidium iodide becomes fluorescent when binding to the DNA of dead cells. Cultures were treated on day 2 with the test agent and then the two assays were conducted after a […] test period. For all assays, a 96-well format was used. For the screen, log concentration-effect studies were conducted from 10 nM to 1 mM with 8 replications. The duration of the test period was five days. Cultures were given a complete change of medium prior to the initiation of the treatment period.
(§3) Potent neuroprotection is the distinguishing characteristic that separates this program's anticonvulsants from all other commercial drugs for epilepsy. The experimental details and the rationale for the implemented assays are essential in differentiating these compounds from that of others. […]

Hippocampal Cultures [2] = assay: Neuroprotection from hydrogen peroxide (oxidative stress), propidium iodide assay; type: cell-based; conditions: Rattus norvegicus, 10 μM Hydrogen Peroxide, read-out: NP from HP PI EC50
Excerpt: as §1
(§4) Potent neuroprotection is the distinguishing characteristic that separates this program's anticonvulsants from all other commercial drugs for epilepsy. The experimental details and the rationale for the implemented assays are essential in differentiating these compounds from that of others. The central objective of all neuroprotective assays was their relevancy to excitotoxicity and oxidative stress related to epilepsy. Both the amount of glutamate and hydrogen peroxide used in the assays, as well as the time of treatment and duration of the experiment, were designed to be relevant to epilepsy. Further, all time parameters employed in these studies were empirically determined to be within the limits of reversible toxic events, yet using amounts of glutamate and hydrogen peroxide that were relevant to the disease. In regard to glutamate toxicity, a critical feature was the duration of treatment of the hippocampal neurons. The rational for using a short 5 min treatment with glutamate was based on the observation of Randall and Thayer (Randall, R. D.; Thayer, S. A. Glutamate-induced calcium transient triggers calcium overload and neurotoxicity in rat hippocampal neurons, J. Neurosci. 1992, 12, 1882-1895). […] The rationale is that this intense burst of glutamate and resulting calcium overload is relevant to seizures and therefore was important data to capture in the screening assay. The amount of glutamate (30 μM) employed in our screening was based on the basal levels of glutamate observed in microdialysis measurements of hippocampus from epileptogenic patients (Cavus et al. Decreased hippocampal volume on MRI is associated with increased extracellular glutamate in epilepsy patients, Epilepsia, 2008, 49, 1358-1366.). In regard to hydrogen peroxide, the amount employed (10 μM) was detected in the hippocampus of rats after kainate-induced status epilepticus (Jarrett et. al., Mitochondrial DNA damage and impaired base excision repair during epileptogenesis, Neurobiol. Dis. 2008, 30, 130-138). To produce neural damage and death with these amounts of glutamate and hydrogen peroxide, the cultures were changed to a medium with significant depletion of antioxidant components in the defined medium supplement B-27 just prior to treatment with the compounds. This was performed to obtain a significant and reproducible toxic signal in the hippocampal neurons and because loss of antioxidant control may be a component of epileptogenesis (Waldbaum and Patel, Mitochondria, oxidative stress and temporal lobe epilepsy, Epilepsy Res. 2010 88, 23-45.; Wu et al., Mitochondrial DNA mutation-elicited oxidative stress, oxidative damage, and altered gene expression in cultured cells of patients with MERRF syndrome, Mol. Neurobiol. 2010, 41, 256-266.). Neuroprotection studies with hydrogen peroxide were conducted with cultures that were between day 12 and day 18. Studies of neuroprotection glutamate were conducted between day 19 and day 22. […]

Hippocampal Cultures [3] = assay: Neuroprotection from glutamate excitotoxicity, CFDA neuronal viability assay; type: cell-based, rat; conditions: for EC50: Rattus norvegicus, 30 μM glutamate, Hippocampal Cultures, read-out: NP from Glutamate CFDA EC50
Experimental: Pharmacology: Hydroxyethyl sulfamides attenuate glutamate-mediated neuronal viability. As an example, compound II, shown above, is shown to attenuate a decrease in carboxyfluorescein diacetate (CFDA) produced by acute treatment with glutamate in FIG. 1. For these studies, day 20 hippocampal cultures derived from E18 rats were treated for 5 min with 30 μM glutamate. Following removal of the glutamate, cultures were treated with various concentrations of compound II and the CFDA neuronal viability assay was conducted 24 hours after the initiation of treatment. The dotted line labeled “control” represents the mean CFDA value for control culture receiving no treatment. The dotted line labeled “carisbamate” represents the mean CFDA value for the reference compound carisbamate, a putative neuroprotective, anticonvulsant. For the CFDA measurements, RFU is the abbreviation for relative fluorescent units. The reference anticonvulsant compound carisbamate was tested at 100 μM, as lower concentrations were ineffective.
as §1, §2
as §3, with “others. The central objective of all neuroprotective assays was their relevancy to excitotoxicity and oxidative stress related to epilepsy.” for “others.”

Hippocampal Cultures [4] = assay: Neuroprotection from hydrogen peroxide (oxidative stress), CFDA assay; type: cell-based; conditions: Rattus norvegicus, 10 μM Hydrogen Peroxide, read-out: NP from HP CFDA EC50
Excerpt: as §1, §4

[5] = day 20 hippocampal cultures, 5 min 30 μM glutamate, CFDA assay 24 hours after initiation of treatment (FIG. 1-3)

SMILES | EC50 (Hippocampal Cultures [2]) | EC50 (Hippocampal Cultures [4]) | EC50 (Hippocampal Cultures [1]; 30 μM glutamate) | EC50 (Hippocampal Cultures [3]) | concentration with the maximally observed efficacy (propidium iodide) (Hippocampal Cultures [1]; hippocampal cultures, 30 μM glutamate) | effect on glutamate-mediated decrease in neuronal viability (CFDA) (Hippocampal Cultures [3]; concentrations lower than 100 μM) | effect on glutamate-mediated increase in cell death (propidium iodide) (Hippocampal Cultures [1]; day 20 hippocampal cultures, 5 min 30 μM glutamate, PI 24 hours after initiation of treatment (FIG. 4)) | effect on glutamate-mediated decrease in neuronal viability (CFDA) (Hippocampal Cultures [3]; [5])
NS(=O)(=O)NCC(O)c1ccccc1Cl (stereo not drawn) [Example 1, 2-(2-Chlorophenyl)-2-hydroxyethylsulfamide] |  |  | 100 µM | 30 µM |  |  |  | 
NS(=O)(=O)NCC(O)c1cccc(Cl)c1 (stereo not drawn) [Example 2, 2-(3-Chlorophenyl)-2-hydroxyethylsulfamide] | 100 µM | 100 µM | > 300 µM | > 300 µM |  |  |  | 
NS(=O)(=O)NCC(O)c1ccsc1 (stereo not drawn) [Example 3, 2-(thiophen-3-yl)-2-hydroxyethylsulfamide] | 30 µM | 30 µM | 30 µM | > 300 µM |  |  |  | 
NS(=O)(=O)NCC(O)c1cc2ccccc2s1 (stereo not drawn) [Example 4, 2-(benzothiophen-2-yl)-2-hydroxyethylsulfamide] | 30 µM | 100 µM | 10 µM | 100 µM |  |  |  | 
NS(=O)(=O)NCC(O)c1cc(Cl)ccc1Cl (stereo not drawn) [Example 5, 2-(2,5-dichlorophenyl)-2-hydroxyethylsulfamide] | > 300 µM | > 300 µM | 30 µM | > 300 µM |  |  |  | 
NS(=O)(=O)NCC(O)c1csc2ccccc12 (stereo not drawn) [Example 7, 2-(benzothiophen-3-yl)-2-hydroxyethylsulfamide] |  |  | > 300 µM | 30 µM |  |  |  | 
NC(=O)OC[C@@H](O)c1ccccc1Cl [carisbamate, reference compound] |  |  |  |  | 100 µM | ineffective |  | 
NS(=O)(=O)NCC(O)c1ccccc1Cl (stereo not drawn) [compound II] |  |  |  |  |  |  | attenuate | attenuate
NS(=O)(=O)NCC(O)c1csc2ccccc12 (stereo not drawn) [compound IV] |  |  |  |  |  |  |  | efficacious

The next lines start with results.

EC50 (Hippocampal Cultures [2]) | EC50 (Hippocampal Cultures [4]) | SMILES | EC50 (Hippocampal Cultures [1]; 30 μM glutamate) | EC50 (Hippocampal Cultures [3]) | concentration with the maximally observed efficacy (propidium iodide) (Hippocampal Cultures [1]; hippocampal cultures, 30 μM glutamate) | effect on glutamate-mediated decrease in neuronal viability (CFDA) (Hippocampal Cultures [3]; concentrations lower than 100 μM) | effect on glutamate-mediated increase in cell death (propidium iodide) (Hippocampal Cultures [1]; day 20 hippocampal cultures, 5 min 30 μM glutamate, PI 24 hours after initiation of treatment (FIG. 4)) | effect on glutamate-mediated decrease in neuronal viability (CFDA) (Hippocampal Cultures [3]; [5])
0.1 µM | 1 µM | NS(=O)(=O)NCC(O)c1ccccc1F (stereo in doubt) [Example 10, (S)-2-(2-Fluorophenyl)-2-hydroxyethylsulfamide] | 0.1 µM | 300 µM |  |  |  | 
300 µM | 300 µM | NS(=O)(=O)NCC(O)c1ccccc1F (stereo in doubt) [Example 11, (R)-3-(2-Fluorophenyl)-2-hydroxyethylsulfamide] |  |  |  |  |  | 
0.01 µM | 10 µM | NS(=O)(=O)NCC(O)c1ccccc1F (stereo not drawn) [Example 6, 2-(2-fluorophenyl)-2-hydroxyethylsulfamide] | 10 µM | 100 µM |  |  |  | 
0.1 µM | 100 µM | CC(O)(CNS(N)(=O)=O)c1ccccc1Cl (stereo not drawn) [Example 8, 2-(2-chlorophenyl)-2-methyl-2-hydroxyethylsulfamide] | 300 µM | > 300 µM |  |  |  | 
> 300 µM | > 300 µM | NS(=O)(=O)N1CC(O)(c2csc3ccccc23)C1 [Example 9, 3-Benzo[b]thiophen-3-yl-3-hydroxy-azetidine-1-sulfonamide] | 1 µM | 0.1 µM |  |  |  | 
> 300 µM | 30 µM | NS(=O)(=O)NC[C@@H](O)c1ccccc1Cl [Example 12, (S)-2-(2-Chlorophenyl)-2-hydroxyethylsulfamide] | 10 µM | 30 µM |  |  |  | 
> 300 µM | 300 µM | NS(=O)(=O)NC[C@H](O)c1ccccc1Cl [Example 13, (R)-2-(2-Chlorophenyl)-2-hydroxyethylsulfamide] | 10 µM | 0.01 µM |  |  |  | 
